# Data taken from patent publication US8952025B2, “Multifunctional radical quenchers and their uses” (Arizona Board of Regents, A Body Corporate of the State of …, priority 2010, dated 2015).
# How the values were obtained:
# cytochrome c = experiment: Cytochrome c reduction assay; format: biochemical; settings: 100 μM compound, 10 μM cytochrome c, absorbance 550 nm
# Method: The rate of cytochrome c (10 μM) reduction was measured by monitoring the change in absorbance at 550 nm. Briefly the reaction was initiated by addition of 100 μM of the invention compounds to a mixture containing 50 mM phosphate buffer, 0.1 mM EDTA, pH 7.8, and 10 μM cytochrome c (Sigma, St. Louis, Mo. USA). For cytochrome c reduction by superoxide, xanthine oxidase (0.01 IU/mL) (Sigma, St. Louis, Mo. USA) was used in presence of xanthine (50 μM).
# [1] = tested on: bovine heart mitochondrial membranes; experiment: Thiobarbituric acid reactive species (TBARS) assay; format: biochemical; settings: H2O2 generated using glucose oxidase
# Method: Lipid peroxidation by hydrogen peroxide in bovine heart mitochondrial membranes was determined by measuring the amount of thiobarbituric acid reactive substances released. Bovine heart mitochondria (1 mg protein) prepared as described by Smith (38) were added to 800 μL of 50 mM phosphate buffer, pH 8.0, and subjected to oxidative stress by the addition of 25 mM glucose and 1 U/mL glucose oxidase from Aspergillus niger. Samples were incubated with or without test compounds at 37° C. for 30 minutes. Two hundred μL each of 1% (w/v) thiobarbituric acid and 35% (v/v) perchloric acid, as well as 0.1% (w/v) butylated hydroxytoluene (from a 2% stock solution in DMSO) were added. Samples were heated at 100° C. for 15 minutes. One-mL aliquots of each sample were taken and diluted in 2 mL of water, then extracted once with 2 mL of n-butanol. […] TBARS were determined fluorometrically from the emission spectrum (λex 515 nm; λem 550 nm) using a Varian fluorimeter. The malondialdehyde concentration was determined based on a standard curve created using serial dilutions of 10 mM 1,1,3,3-tetraethoxypropane hydrolyzed in 1% (v/v) H2SO4 at 4° C. overnight. The malondialdehyde concentration was expressed as nmoles manoldialdehyde per mg protein. Protein in aliquots of the homogenates was determined by the bicinchoninic acid method.
# [2] = Stability of isolated free base on storage; format: physicochemical; settings: orange oil
# Method: To a solution of 2.2 mg (4.4 μmol) acetyl ester 35 in 1 mL CH2Cl2 was added 17.5 μL (17.5 μmol) of DIBAL-H at −78° C. The reaction mixture was stirred at same temperature for 2 h than 1 mL of aqueous saturated sodium potassium tartrate was added slowly. The reaction mixture was allowed to warm to room temperature slowly add stirred for 3 h then separated. The aqueous layer was extracted with two portions of 5 mL of ethyl acetate. The combined organic layer was washed with brine, dried (Na2SO4) and concentrated under diminished pressure to give the product C as orange oil. HPLC found retain time in 21.82 min.
SMILES,reduction of cytochrome c (cytochrome c),preventing TBARS formation [1],stability of isolated compound [2]
"Cc1nc(N(C)C)nc(CCCCCCCCCCO)c1O [Compound A, 2-N,N-dimethylamino-5-hydroxy-4-methyl-6-(10-hydroxydecyl)-pyrimidine]",clearly reduce cytochrome c,–,–
"Cc1nc2c(c(CC[C@](C)(O)CCC[C@H](C)CCC[C@H](C)CCCC(C)C)c1O)CCN2C [Compound C, 4-((3R,7R,11R)-3-hydroxy-3,7,11,15-tetramethylhexadecyl)-1,6-dimethyl-2,3-dihydro-1H-pyrrolo[2,3-b]pyridine-5-ol]",–,more effective in preventing TBARS formation,degenerated after one day
